Source: US11046686B2, “Thiadiazole IRAK4 compounds” (Gilead Sciences, Inc., priority 2018, dated 2021)
Where two headings read alike, the source gives them in different places.

Tested on: TNFα
Experiment: IRAK4 Monocyte TNFα Cell Based Assay
Set-up: species or system human
Conditions: human monocytes, second part of Table 2, compounds 33-343, unit inferred, read-out: EC50 MONO TNF HTRF
Outline: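 Human monocytes (5,000/well) pretreated with compound 1 h at 37 °C (0.1% DMSO final), then stimulated with 50 pg/ml LPS for 4 h. Secreted TNFα measured by TR-FRET two-antibody detection after overnight incubation at room temperature; % control relative to unstimulated and LPS-stimulated wells.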

Q: With CNc1cc(-c2ccc3cc(C#N)cnn23)ncc1-c1nnc(N2C[C@H]3CC[C@@H](C2)[C@@H]3NC(C)=O)s1 [Example 292, N-((1R,5S,8s)-3-(5-(6-(3-cyanopyrrolo[1,2-b]pyridazin-7-yl)-4-(methylamino)pyridin-3-yl)-1,3,4-thiadiazol-2-yl)-3-azabicyclo[3.2.1]octan-8-yl)acetamide] as the molecule, how does the EC50 read?
A: Its EC50 is 6.7 nM.

Q: Which EC50 (Homo sapiens, Monocyte) does the source give for CC(C)Nc1cc(-c2ccc3cc(C#N)cnn23)ncc1-c1nnc(N2CCC(F)(F)CC2)s1 [Example 294, 7-(5-(5-(4,4-difluoropiperidin-1-yl)-1,3,4-thiadiazol-2-yl)-4-(isopropylamino)pyridin-2-yl)pyrrolo[1,2-b]pyridazine-3-carbonitrile] here?
A: Its EC50 is 1000 nM.

Q: CC(=O)N(C)[C@@H]1[C@@H]2CC[C@H]1CN(c1nnc(-c3cnc(-c4ccc5cc(C#N)cnn45)cc3NC(C)C)s1)C2 [Example 300] was tested. Which EC50 did it give?
A: The EC50 was 5.3 nM.

Q: Which EC50 does the source give for CC(C)Nc1cc(-c2ccc3cc(C#N)cnn23)ncc1-c1nnc(N2C[C@H]3CC[C@@H](C2)[C@@H]3N2CCOC2=O)s1 [Example 301, 7-(4-(isopropylamino)-5-(5-((1R,5S,8s)-8-(2-oxooxazolidin-3-yl)-3-azabicyclo[3.2.1]octan-3-yl)-1,3,4-thiadiazol-2-yl)pyridin-2-yl)pyrrolo[1,2-b]pyridazine-3-carbonitrile] here?
A: The EC50 was 4.9 nM.

Q: With CC(=O)N1C[C@@H]2C[C@H]1CN2c1nnc(-c2cnc(-c3ccc4cc(C#N)cnn34)cc2NC(C)C)s1 [Example 302, 7-(5-(5-((1S,4S)-5-acety1-2,5-diazabicyclo[2.2.1]heptan-2-yl)-1,3,4-thiadiazol-2-yl)-4-(isopropylamino)pyridin-2-yl)pyrrolo[1,2-b]pyridazine-3-carbonitrile] as the molecule, how does the EC50 read?
A: The EC50 was 5.3 nM.

Q: How did the EC50 turn out when CC(C)Nc1cc(-c2ccc3cc(C#N)cnn23)ncc1-c1nnc(N2CCN(C3COC3)CC2)s1 [Example 304] was run?
A: The EC50 was 9.8 nM.

Q: With CC(C)Nc1cc(-c2ccc3cc(C#N)cnn23)ncc1-c1nnc(N2C[C@H]3CC[C@@H](C2)[C@@H]3Nc2ncccn2)s1 [Example 308, 7-(4-(isopropylamino)-5-(5-((1R,5S,8s)-8-(pyrimidin-2-ylamino)-3-azabicyclo[3.2.1]octan-3-yl)-1,3,4-thiadiazol-2-yl)pyridin-2-yl)pyrrolo[1,2-b]pyridazine-3-carbonitrile] as the molecule, how does the EC50 read?
A: Its EC50 is 18.4 nM.

Q: How did the EC50 turn out when CC(C)Nc1cc(-c2ccc3cc(C#N)cnn23)ncc1-c1nnc(N2C[C@H]3CC[C@@H](C2)[C@@H]3Nc2ncccc2F)s1 [Example 309] was run?
A: The EC50 was 687 nM.

Q: For CC(C)(O)C(=O)N[C@H]1CC[C@@H](c2nnc(-c3cnc(-c4ccc5cc(C#N)cnn45)cc3NC3COC3)s2)CC1 [Example 311, N-((1s,4s)-4-(5-(6-(3-cyanopyrrolo[1,2-b]pyridazin-7-yl)-4-(oxetan-3-ylamino)pyridin-3-yl)-1,3,4-thiadiazol-2-yl)cyclohexyl)-2-hydroxy-2-methylpropanamide], which EC50 is on record?
A: The EC50 was 22.6 nM.

Q: How did the EC50 turn out when CC(C)Nc1cc(-c2ccc3cc(C#N)cnn23)ncc1-c1nnc([C@H]2CC[C@@H](NC(=O)C(C)(C)O)CC2)s1 [Example 312, N-((1s,4s)-4-(5-(6-(3-cyanopyrrolo[1,2-b]pyridazin-7-yl)-4-(isopropylamino)pyridin-3-yl)-1,3,4-thiadiazol-2-yl)cyclohexyl)-2-hydroxy-2-methylpropanamide] was run?
A: Its EC50 is 17.5 nM.

Q: How did the EC50 turn out when CC(C)Nc1cc(-c2ccc3cc(C#N)cnn23)ncc1-c1nnc([C@H]2CC[C@H](NC(=O)C(C)(C)O)CC2)s1 [Example 315, N-((1r,4r)-4-(5-(6-(3-cyanopyrrolo[1,2-b]pyridazin-7-yl)-4-(isopropylamino)pyridin-3-yl)-1,3,4-thiadiazol-2-yl)cyclohexyl)-2-hydroxy-2-methylpropanamide] was run?
A: The EC50 was 10.9 nM.

Q: With CCOC(=O)Cc1nnc(-c2cnc(-c3ccc4cc(C#N)cnn34)cc2NC(C)C)s1 [Example 318] as the molecule, how does the EC50 read?
A: Its EC50 is 102 nM.
